Tested on: OVCAR8
Assay: cancer cell viability relative to untreated control; higher = less cytotoxic
Details: 72 h
Description: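 KURAMOCHI or OVCAR8 cells were grown in monoculture or in co-culture with WI38 or patient-derived 030F fibroblasts and treated for 72 h with a dose matrix of carboplatin combined with birinapant or vorinostat (doses in nM). Cancer cell viability was measured by CK8/18 immunofluorescence imaging and expressed as % of untreated control, given as mean with SD.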

O=C(O)C1(C(=O)O)CCC1.[NH2-].[NH2-].[Pt+2] [Carboplatin] + CC[C@H](NC(=O)[C@H](C)NC)C(=O)N1C[C@@H](O)C[C@H]1Cc1c(-c2[nH]c3cc(F)ccc3c2C[C@@H]2C[C@H](O)CN2C(=O)[C@H](CC)NC(=O)[C@H](C)NC)[nH]c2cc(F)ccc12 [Birinapant]
cancer cell viability [%]
Details	partner drug concentration 0 nM	partner drug concentration 0.1 nM	partner drug concentration 1 nM	partner drug concentration 10 nM	partner drug concentration 100 nM	partner drug concentration 1000 nM
carboplatin concentration 10 nM, co-cultured fibroblast: 030F	95.9	93.4	86.9	85.6	53.2	11.3
carboplatin concentration 10 nM, co-cultured fibroblast: WI38	112	112	98.5	99.2	59.9	9.28
carboplatin concentration 10 nM, co-cultured fibroblast: none (monoculture)	100	107	102	96.1	68.1	14.5
carboplatin concentration 100 nM, co-cultured fibroblast: 030F	97.7	89.9	85.8	92.3	46	12.3
carboplatin concentration 100 nM, co-cultured fibroblast: WI38	103	101	102	98.1	52.4	10.8
carboplatin concentration 100 nM, co-cultured fibroblast: none (monoculture)	101	99.5	101	103	71.7	13.4
carboplatin concentration 1000 nM, co-cultured fibroblast: 030F	96.9	83.5	90.8	96.9	50.5	14.7
carboplatin concentration 1000 nM, co-cultured fibroblast: WI38	107	98.1	104	92.6	56.6	9.2
carboplatin concentration 1000 nM, co-cultured fibroblast: none (monoculture)	101	102	98.6	105	79.7	16.3
carboplatin concentration 1e+05 nM, co-cultured fibroblast: 030F	23.2	34.9	41.2	34.2	15.9	8.74
carboplatin concentration 1e+05 nM, co-cultured fibroblast: WI38	10.6	36.2	51.3	40.3	21.4	3
carboplatin concentration 1e+05 nM, co-cultured fibroblast: none (monoculture)	23.1	61	58.4	60.6	46.2	6.42
carboplatin concentration 10000 nM, co-cultured fibroblast: 030F	52.3	72.4	90.8	85.1	34.3	9.13
carboplatin concentration 10000 nM, co-cultured fibroblast: WI38	41.6	82.3	89.1	95.9	49.7	7.2
carboplatin concentration 10000 nM, co-cultured fibroblast: none (monoculture)	56.5	90.3	92.5	100	64.8	12.6

O=C(O)C1(C(=O)O)CCC1.[NH2-].[NH2-].[Pt+2] [Carboplatin] + O=C(CCCCCCC(=O)Nc1ccccc1)NO [Vorinostat]
cancer cell viability [%]
Details	partner drug concentration 0 nM	partner drug concentration 1 nM	partner drug concentration 10 nM	partner drug concentration 100 nM	partner drug concentration 1000 nM	partner drug concentration 10000 nM
carboplatin concentration 10 nM, co-cultured fibroblast: 030F	95.9	98.7	97.7	61.9	16.7	1.47
carboplatin concentration 10 nM, co-cultured fibroblast: WI38	112	95.4	93.8	57.2	13	-0.353
carboplatin concentration 10 nM, co-cultured fibroblast: none (monoculture)	100	118	106	77.6	12.5	-1.11
carboplatin concentration 100 nM, co-cultured fibroblast: 030F	97.7	88.3	82.6	53.7	17.5	0.669
carboplatin concentration 100 nM, co-cultured fibroblast: WI38	103	98.1	88.4	53.3	11.5	-0.268
carboplatin concentration 100 nM, co-cultured fibroblast: none (monoculture)	101	108	109	58.4	20.6	-0.748
carboplatin concentration 1000 nM, co-cultured fibroblast: 030F	96.9	93	94.1	50.7	15.3	1.7
carboplatin concentration 1000 nM, co-cultured fibroblast: WI38	107	96.1	86	45.4	14.6	-0.251
carboplatin concentration 1000 nM, co-cultured fibroblast: none (monoculture)	101	111	102	63.4	17.2	-1.67
carboplatin concentration 1e+05 nM, co-cultured fibroblast: 030F	23.2	30.2	32.9	22.8	15.3	0.46
carboplatin concentration 1e+05 nM, co-cultured fibroblast: WI38	10.6	34.2	33.1	22.9	13.3	-0.83
carboplatin concentration 1e+05 nM, co-cultured fibroblast: none (monoculture)	23.1	57.5	51.6	24.6	17.1	-3.4
carboplatin concentration 10000 nM, co-cultured fibroblast: 030F	52.3	78.3	64.7	37.2	19.1	1.01
carboplatin concentration 10000 nM, co-cultured fibroblast: WI38	41.6	74.9	68.8	47.1	19	-0.481
carboplatin concentration 10000 nM, co-cultured fibroblast: none (monoculture)	56.5	89.7	89.7	65.2	26.8	-0.768

From the supplement of paper PMC12420376
